Laboratory results published in the NIST ThermoML archive (doi:10.1016/j.fluid.2014.10.015).
Numbers after ± are expanded uncertainties.

Conditions: for mass density / viscosity: Liquid; for mass density: Vibrating tube method; for surface tension liquid-gas: Pendant drop shape; for viscosity: Concentric cylinders viscometry

CC(=O)[O-].CCCCn1cc[n+](C)c1 [1-butyl-3-methylimidazolium acetate]
Conditions | mass density [kg/m3] | viscosity [mPa·s]
313.16 K, 109981 kPa | 1083.53 ± 6.7 | –
313.17 K, 5238 kPa | 1045.49 ± 5.9 | –
313.18 K, 1226 kPa | 1043.82 ± 5.9 | –
333.13 K, 101.33 kPa | 1031.21 ± 5.8 | –
333.14 K, 9567 kPa | 1035.37 ± 5.8 | –
333.15 K, 101 kPa | 1031.21 ± 5.8 | –
333.15 K, 101.33 kPa | – | 53.5 ± 1.7
333.15 K, 628 kPa | 1031.45 ± 5.8 | –
333.15 K, 4971 kPa | 1033.37 ± 5.8 | –
333.15 K, 20116 kPa | 1039.9 ± 5.9 | –
333.15 K, 29979 kPa | 1044.01 ± 6 | –
333.15 K, 49981 kPa | 1052.04 ± 6.1 | –
333.15 K, 59681 kPa | 1055.77 ± 6.2 | –
333.15 K, 70024 kPa | 1059.64 ± 6.2 | –
333.15 K, 79610 kPa | 1063.12 ± 6.3 | –
333.16 K, 39561 kPa | 1047.91 ± 6 | –
333.16 K, 89976 kPa | 1066.77 ± 6.4 | –
333.17 K, 99080 kPa | 1069.88 ± 6.5 | –
333.17 K, 109991 kPa | 1073.48 ± 6.5 | –
333.17 K, 120185 kPa | 1076.74 ± 6.6 | –
333.17 K, 129974 kPa | 1079.75 ± 6.7 | –
333.17 K, 139981 kPa | 1082.73 ± 6.8 | –
343.16 K, 101.33 kPa | 1025.2 ± 5.7 | –
353.12 K, 1410 kPa | 1019.9 ± 5.6 | –
353.12 K, 139714 kPa | 1072.82 ± 6.6 | –
353.13 K, 120068 kPa | 1066.76 ± 6.5 | –
353.13 K, 130015 kPa | 1069.89 ± 6.5 | –
353.14 K, 4959 kPa | 1021.56 ± 5.6 | –
353.14 K, 99015 kPa | 1059.73 ± 6.3 | –
353.14 K, 109983 kPa | 1063.46 ± 6.4 | –
353.15 K, 101 kPa | 1019.28 ± 5.6 | –
353.15 K, 101.33 kPa | 1019.28 ± 5.6 | 24.4 ± 0.8
353.15 K, 60022 kPa | 1045.25 ± 6 | –
353.15 K, 70021 kPa | 1049.15 ± 6.1 | –
353.15 K, 80038 kPa | 1052.92 ± 6.2 | –
353.15 K, 90002 kPa | 1056.56 ± 6.2 | –
353.16 K, 9951 kPa | 1023.86 ± 5.7 | –
353.16 K, 49992 kPa | 1041.22 ± 5.9 | –
353.17 K, 20183 kPa | 1028.49 ± 5.7 | –
353.17 K, 29998 kPa | 1032.8 ± 5.8 | –
353.18 K, 39534 kPa | 1036.88 ± 5.9 | –
373.14 K, 19875 kPa | 1017.03 ± 5.6 | –
373.14 K, 139805 kPa | 1063.23 ± 6.5 | –
373.15 K, 101 kPa | 1007.58 ± 5.5 | –
373.15 K, 101.33 kPa | – | 13.8 ± 0.4
373.15 K, 9977 kPa | 1012.37 ± 5.5 | –
373.15 K, 99180 kPa | 1049.72 ± 6.2 | –
373.15 K, 110012 kPa | 1053.53 ± 6.2 | –
373.15 K, 120856 kPa | 1057.2 ± 6.3 | –
373.15 K, 129989 kPa | 1060.16 ± 6.4 | –
373.16 K, 4871 kPa | 1009.91 ± 5.5 | –
373.16 K, 29995 kPa | 1021.67 ± 5.7 | –
373.16 K, 49968 kPa | 1030.42 ± 5.8 | –
373.16 K, 59224 kPa | 1034.29 ± 5.9 | –
373.16 K, 90022 kPa | 1046.37 ± 6.1 | –
373.17 K, 2297 kPa | 1008.66 ± 5.5 | –
373.17 K, 39711 kPa | 1025.99 ± 5.7 | –
373.17 K, 69994 kPa | 1038.66 ± 5.9 | –
373.18 K, 79589 kPa | 1042.42 ± 6 | –
393.13 K, 5180 kPa | 998.69 ± 5.4 | –
393.14 K, 60153 kPa | 1024.29 ± 5.7 | –
393.14 K, 69980 kPa | 1028.4 ± 5.8 | –
393.14 K, 80125 kPa | 1032.49 ± 5.9 | –
393.14 K, 120002 kPa | 1047.09 ± 6.2 | –
393.15 K, 101 kPa | 996.11 ± 5.4 | –
393.15 K, 3086 kPa | 997.63 ± 5.4 | –
393.15 K, 10081 kPa | 1001.16 ± 5.4 | –
393.15 K, 20117 kPa | 1006.09 ± 5.5 | –
393.15 K, 30011 kPa | 1010.81 ± 5.5 | –
393.15 K, 40130 kPa | 1015.49 ± 5.6 | –
393.15 K, 49985 kPa | 1019.89 ± 5.7 | –
393.15 K, 90011 kPa | 1036.33 ± 5.9 | –
393.15 K, 109214 kPa | 1043.37 ± 6.1 | –
393.15 K, 130005 kPa | 1050.39 ± 6.2 | –
393.16 K, 99789 kPa | 1039.98 ± 6 | –
393.16 K, 139958 kPa | 1053.52 ± 6.3 | –
413.12 K, 2006 kPa | 985.88 ± 5.2 | –
413.12 K, 5092 kPa | 987.51 ± 5.3 | –
413.13 K, 20186 kPa | 995.28 ± 5.3 | –
413.14 K, 30014 kPa | 1000.15 ± 5.4 | –
413.14 K, 40204 kPa | 1005.02 ± 5.5 | –
413.14 K, 49979 kPa | 1009.54 ± 5.5 | –
413.14 K, 60179 kPa | 1014.09 ± 5.6 | –
413.14 K, 70022 kPa | 1018.33 ± 5.7 | –
413.14 K, 99791 kPa | 1030.18 ± 5.9 | –
413.14 K, 119957 kPa | 1037.4 ± 6 | –
413.14 K, 139956 kPa | 1043.92 ± 6.1 | –
413.15 K, 101 kPa | 984.86 ± 5.2 | –
413.15 K, 79800 kPa | 1022.54 ± 5.7 | –
413.15 K, 90200 kPa | 1026.45 ± 5.8 | –
413.15 K, 109956 kPa | 1033.9 ± 5.9 | –
413.15 K, 129954 kPa | 1040.74 ± 6.1 | –
413.16 K, 10624 kPa | 990.4 ± 5.3 | –

Conditions | surface tension liquid-gas [mN/m]
313.2 K | 36.88 ± 1.4
318.2 K | 36.63 ± 1.4
323.2 K | 36.42 ± 1.4
328.2 K | 36.2 ± 1.4
